Experiments:
[1] = target: SHP-2 enzyme (Met1-Leu525) (Homo sapiens (Human), UniProt Q06124); experiment: SHP2 inhibition enzymatic assay; assay type: biochemical; conditions: 0.5 nM SHP-2 activated by 500 nM IRS1 peptide, 75 μM DiFMUP substrate; read-out: SHP2wt-IC50
Outline: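 SHP-2 (Met1-Leu525), 0.5 nM, activated with 500 nM IRS1 bis-phosphopeptide, preincubated 30 min with compounds in HEPES pH 7.2 buffer with 5 mM DTT. 75 μM DiFMUP added for 30 min at room temperature, stopped with bpV; fluorescence read. IC50 from four-parameter logistic fit of % inhibition.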

[2] = system: ERK phosphorylation in KYSE-520 cells; experiment: Phospho-ERK cellular assay; assay type: cell-based; conditions: Homo sapiens, KYSE-520, 2 h, KYSE-520 cells, 2 h at 37° C., phospho-ERK1/2 (Thr202/Tyr204) TR-FRET; read-out: PERK IC50
Outline: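 TR-FRET read-out of ERK1/2 Thr202/Tyr204 phosphorylation was taken after overnight antibody incubation at room temperature. Before that, KYSE-520 cells were treated 2 h at 37 °C with compound dilutions and lysed 30 min. Percent inhibition relative to vehicle and cell-free wells was fitted four-parametrically to give IC50.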

SHP-2 enzyme (Met1-Leu525), sequence (Q06124 1-525): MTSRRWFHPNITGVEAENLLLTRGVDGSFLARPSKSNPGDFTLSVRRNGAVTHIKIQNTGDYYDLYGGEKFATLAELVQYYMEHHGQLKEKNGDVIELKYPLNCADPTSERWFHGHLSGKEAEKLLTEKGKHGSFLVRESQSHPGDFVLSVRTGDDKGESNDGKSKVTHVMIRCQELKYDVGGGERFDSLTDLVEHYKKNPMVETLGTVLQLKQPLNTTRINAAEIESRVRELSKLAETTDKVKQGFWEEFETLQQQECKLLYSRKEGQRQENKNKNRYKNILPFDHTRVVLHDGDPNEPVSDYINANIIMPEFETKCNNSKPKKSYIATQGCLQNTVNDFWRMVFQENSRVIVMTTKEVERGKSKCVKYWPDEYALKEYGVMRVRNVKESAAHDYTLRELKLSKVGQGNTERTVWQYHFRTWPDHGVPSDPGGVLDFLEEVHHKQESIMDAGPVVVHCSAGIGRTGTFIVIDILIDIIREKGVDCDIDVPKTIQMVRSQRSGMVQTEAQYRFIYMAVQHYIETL

Compound	IC50 [1]	IC50 [2]
CC(C)n1ncc2c(Cl)c(-c3n[nH]c4nc(N5CC[C@@H]6[C@H](C5)[C@@]6(CN)c5ccccc5F)cnc34)ccc21 [Example 325, ((1S,6R,7R)-3-(3-(4-chloro-1-isopropyl-1H-indazol-5-yl)-1H-pyrazolo[3,4-b]pyrazin-6-yl)-7-(2-fluorophenyl)-3-azabicyclo[4.1.0]heptan-7-yl)methanamine]	< 500 nM	< 1000 nM
Cn1cc2c(Cl)c(-c3n[nH]c4nc(N5C[C@@H]6[C@H](C5)[C@@]6(CN)c5ccccn5)cnc34)ccc2n1 [Example 491, ((1R,5S,6r)-3-(3-(4-chloro-2-methyl-2H-indazol-5-yl)-1H-pyrazolo[3,4-b]pyrazin-6-yl)-6-(pyridin-2-yl)-3-azabicyclo[3.1.0]hexan-6-yl)methanamine]	< 500 nM	< 1000 nM
NC[C@]1(c2cc(F)cc(F)c2)[C@@H]2CCN(c3cnc4c(-c5ccc6c(=O)[nH]ccc6c5F)n[nH]c4n3)C[C@@H]21 [Example 306, 6-(6-((1S,6R,7R)-7-(aminomethyl)-7-(3,5-difluorophenyl)-3-azabicyclo[4.1.0]heptan-3-yl)-1H-pyrazolo[3,4-b]pyrazin-3-yl)-5-fluoroisoquinolin-1(2H)-one]	< 500 nM	< 1000 nM
Cn1cc2c(Cl)c(-c3n[nH]c4nc(N5C[C@@H]6[C@H](C5)[C@@]6(CN)c5nc(Cl)cs5)n(C)c(=O)c34)ccc2n1 [Example 470, 6-((1R,5S,6r)-6-(aminomethyl)-6-(4-chlorothiazol-2-yl)-3-azabicyclo[3.1.0]hexan-3-yl)-3-(4-chloro-2-methyl-2H-indazol-5-yl)-5-methyl-1,5-dihydro-4H-pyrazolo[3,4-d]pyrimidin-4-one]	< 500 nM	< 1000 nM
NC[C@]1(c2ccccc2F)[C@@H]2CCN(c3cnc4c(-c5ccc(-c6cc(F)cc(F)c6)cc5Cl)n[nH]c4n3)C[C@@H]21 [Example 323, ((1S,6R,7R)-3-(3-(3-chloro-3′,5′-difluoro-[1,1′-biphenyl]-4-yl)-1H-pyrazolo[3,4-b]pyrazin-6-yl)-7-(2-fluorophenyl)-3-azabicyclo[4.1.0]heptan-7-yl)methanamine]	< 500 nM	< 1000 nM
Cn1c(=O)oc2ccc(-c3n[nH]c4nc(N5CC[C@@H]6[C@H](C5)[C@@]6(CN)c5ccccc5F)cnc34)cc21 [Example 341, 5-(6-((1S,6R,7R)-7-(aminomethyl)-7-(2-fluorophenyl)-3-azabicyclo[4.1.0]heptan-3-yl)-1H-pyrazolo[3,4-b]pyrazin-3-yl)-3-methylbenzo[d]oxazol-2(3H)-one]	< 500 nM	< 1000 nM
CNC(=O)c1ccc(-c2n[nH]c3nc(N4CC[C@@H]5[C@H](C4)[C@@]5(CN)c4ccccc4F)cnc23)c(Cl)c1 [Example 273, 4-(6-((1S,6R,7R)-7-(aminomethyl)-7-(2-fluorophenyl)-3-azabicyclo[4.1.0]heptan-3-yl)-1H-pyrazolo[3,4-b]pyrazin-3-yl)-3-chloro-N-methylbenzamide]	< 500 nM	< 1000 nM
Cn1c(=O)n(C)c2c(Cl)c(-c3n[nH]c4nc(N5CC[C@@H]6[C@H](C5)[C@@]6(CN)c5ccccc5F)cnc34)ccc21 [Example 317, 5-(6-((1S,6R,7R)-7-(aminomethyl)-7-(2-fluorophenyl)-3-azabicyclo[4.1.0]heptan-3-yl)-1H-pyrazolo[3,4-b]pyrazin-3-yl)-4-chloro-1,3-dimethyl-1,3-dihydro-2H-benzo[d]imidazol-2-one]	< 500 nM	< 1000 nM
NC[C@]1(c2ccccc2F)[C@@H]2CCN(c3cnc4c(-c5ccc(-n6cccc6)cc5Cl)n[nH]c4n3)C[C@@H]21 [Example 454, ((1S,6R,7R)-3-(3-(2-chloro-4-(1H-pyrrol-1-yl)phenyl)-1H-pyrazolo[3,4-b]pyrazin-6-yl)-7-(2-fluorophenyl)-3-azabicyclo[4.1.0]heptan-7-yl)methanamine]	< 500 nM	< 1000 nM
NC[C@]1(c2ccccc2F)[C@@H]2CCN(c3cnc4c(-c5cccc(-c6ncco6)c5Cl)n[nH]c4n3)C[C@@H]21 [Example 168, ((1S,6R,7R)-3-(3-(2-chloro-3-(oxazol-2-yl)phenyl)-1H-pyrazolo[3,4-b]pyrazin-6-yl)-7-(2-fluorophenyl)-3-azabicyclo[4.1.0]heptan-7-yl)methanamine]	< 500 nM	< 1000 nM
Cn1cc2c(Cl)c(-c3n[nH]c4nc(N5CC[C@@H]6[C@H](C5)[C@@]6(CN)c5cc(F)cc(F)c5)cnc34)ccc2n1 [Example 291, ((1S,6R,7R)-3-(3-(4-chloro-2-methyl-2H-indazol-5-yl)-1H-pyrazolo[3,4-b]pyrazin-6-yl)-7-(3,5-difluorophenyl)-3-azabicyclo[4.1.0]heptan-7-yl)methanamine]	< 500 nM	< 1000 nM
Cc1cc(C2(CN)C3CCN(c4cnc5c(-c6ccc7nn(C)cc7c6Cl)n[nH]c5n4)CC32)no1 (stereo not shown) [Example 24, (3-(3-(4-chloro-2-methyl-2H-indazol-5-yl)-1H-pyrazolo[3,4-b]pyrazin-6-yl)-7-(5-methylisoxazol-3-yl)-3-azabicyclo[4.1.0]heptan-7-yl)methanamine]	< 500 nM	< 1000 nM
NCC1C2CCN(c3cnc4c(-c5cccc(Cl)c5Cl)n[nH]c4n3)CC12 (stereo not shown) [Example 100, (3-(3-(2,3-dichlorophenyl)-1H-pyrazolo[3,4-b]pyrazin-6-yl)-3-azabicyclo[4.1.0]heptan-7-yl)methanamine]	< 500 nM	< 1000 nM

The remaining lines, values ahead:

IC50 [1]	IC50 [2]	Compound
< 500 nM	< 1000 nM	Cc1cc([C@@]2(CN)[C@@H]3CCN(c4cnc5c(-c6cnc7cc(C(F)(F)F)ccc7c6)n[nH]c5n4)C[C@@H]32)no1 [Example 152, ((1S,6R,7S)-7-(5-methylisoxazol-3-yl)-3-(3-(7-(trifluoromethyl)quinolin-3-yl)-1H-pyrazolo[3,4-b]pyrazin-6-yl)-3-azabicyclo[4.1.0]heptan-7-yl)methanamine]
< 500 nM	< 1000 nM	Cc1csc([C@@]2(CN)[C@@H]3CN(c4cnc5c(-c6ccc7nn(C)cc7c6Cl)n[nH]c5n4)C[C@@H]32)n1 [Example 457, ((1R,5S,6r)-3-(3-(4-chloro-2-methyl-2H-indazol-5-yl)-1H-pyrazolo[3,4-b]pyrazin-6-yl)-6-(4-methylthiazol-2-yl)-3-azabicyclo[3.1.0]hexan-6-yl)methanamine]
< 500 nM	< 1000 nM	NC[C@]1(c2ccccc2F)[C@@H]2CCN(c3cnc4nc(Sc5ccncc5)ccc4n3)C[C@@H]21 [Example 407, ((1S,6R,7R)-7-(2-fluorophenyl)-3-(6-(pyridin-4-ylthio)pyrido[2,3-b]pyrazin-2-yl)-3-azabicyclo[4.1.0]heptan-7-yl)methanamine]
< 500 nM	< 1000 nM	Cc1csc([C@@]2(CN)[C@@H]3CCN(c4cnc5c(-c6ccc7nn(C)cc7c6Cl)n[nH]c5n4)C[C@@H]32)n1 [Example 79, ((1S,6R,7S)-3-(3-(4-chloro-2-methyl-2H-indazol-5-yl)-1H-pyrazolo[3,4-b]pyrazin-6-yl)-7-(4-methylthiazol-2-yl)-3-azabicyclo[4.1.0]heptan-7-yl)methanamine]
< 500 nM	< 1000 nM	Cc1csc([C@@]2(CN)[C@@H]3CN(c4cnc5c(-c6ccc(F)c7ncccc67)n[nH]c5n4)C[C@@H]32)n1 [Example 213, ((1R,5S,6r)-3-(3-(8-fluoroquinolin-5-yl)-1H-pyrazolo[3,4-b]pyrazin-6-yl)-6-(4-methylthiazol-2-yl)-3-azabicyclo[3.1.0]hexan-6-yl)methanamine]
< 500 nM	< 1000 nM	Cc1csc(C2(CN)C3CCN(c4cnc5c(-c6ccc(Cl)c7ncccc67)n[nH]c5n4)CC32)n1 (stereo not shown) [Example 442, (3-(3-(8-chloroquinolin-5-yl)-1H-pyrazolo[3,4-b]pyrazin-6-yl)-7-(4-methylthiazol-2-yl)-3-azabicyclo[4.1.0]heptan-7-yl)methanamine]
< 500 nM	< 1000 nM	Cc1cc(C2(CN)C3CCN(c4cnc5c(-c6cccc7cnccc67)n[nH]c5n4)CC32)no1 (stereo not shown) [Example 23, (3-(3-(isoquinolin-5-yl)-1H-pyrazolo[3,4-b]pyrazin-6-yl)-7-(5-methylisoxazol-3-yl)-3-azabicyclo[4.1.0]heptan-7-yl)methanamine]
< 500 nM	< 1000 nM	Cc1cc(C2(CN)C3CCN(c4cnc5c(-c6ccnc(N)c6Cl)n[nH]c5n4)CC32)no1 (stereo not shown) [Example 36, 4-(6-(7-(aminomethyl)-7-(5-methylisoxazol-3-yl)-3-azabicyclo[4.1.0]heptan-3-yl)-1H-pyrazolo[3,4-b]pyrazin-3-yl)-3-chloropyridin-2-amine]
< 500 nM	1000 to 5000 nM	Cc1csc(C2(CN)C3CCN(c4cnc(Sc5cccnc5C(F)(F)F)c(N)n4)CC32)n1 (stereo not shown) [Example 73, 6-(7-(aminomethyl)-7-(4-methylthiazol-2-yl)-3-azabicyclo[4.1.0]heptan-3-yl)-3-((2-(trifluoromethyl)pyridin-3-yl)thio)pyrazin-2-amine]
< 500 nM	< 1000 nM	NC[C@]1(c2ccccc2F)[C@@H]2CCN(c3cnc4nc(Sc5ccnc(-n6cccn6)c5Cl)ccc4n3)C[C@@H]21 [Example 398, ((1S,6R,7R)-3-(6-((3-chloro-2-(1H-pyrazol-1-yl)pyridin-4-yl)thio)pyrido[2,3-b]pyrazin-2-yl)-7-(2-fluorophenyl)-3-azabicyclo[4.1.0]heptan-7-yl)methanamine]

From patent US20240109900A1, “AZABICYCLIC SHP2 INHIBITORS” (IRBM S.P.A., priority 2021, published 2024)
